Assay results taken from publication PMC6579712 (Xenobiotica; the fate of foreign compounds in biological …, 2018).
“Also recorded” adds a separate entry of the source. Where two headings read alike, the source gives them in different places.

What was measured:
[1] = ARV concentrations in brain tissue and plasma by LC-MS/MS, hu-HSC-RAG mice; settings: p=0.29
[2] = in vivo
RT-SHIV [3] = test: 90% inhibitory quotient; set-up: IQ90 in NHP brain tissue, one individual animal: unit not given beside the values; settings: for IQ90 in NHP brain tissue, one individual animal: the single animal above 1
HIV = settings: target value used for colocalization; cited from earlier work
[4] = cited from earlier work
[5] = in vivo; cited from earlier work
[6] = no reference given; cited from earlier work
[7] = ARV concentrations in brain tissue, CSF and plasma by LC-MS/MS, NHPs
[8] = ARV concentrations in brain tissue and plasma by LC-MS/MS, BLT mice; settings: BLT vs hu-HSC-RAG
in vitro = in vitro ADME, rhesus macaques; settings: rhesus macaque, frontal cortex brain tissue homogenate
RT-SHIV [9] = test: IC90 against the RT-SHIV strain of virus; assay type: cell-based
[10] = in vivo; cited from earlier work; remark: listed apart in the source

## CC(Cn1cnc2c(N)ncnc21)OCP(=O)(O)OP(=O)(O)OP(=O)(O)O (stereo in doubt) [TFV-dp, tenofovir diphosphate]
[1]
  fold higher median TFV-dp brain concentration in hu-HSC-RAG vs BLT mice: 10 fold
[2]
  TFV-dp concentration range in all brain tissue samples: 851 to 179,000 fmol/g of tissue
RT-SHIV [3]
  IQ90 in NHP brain tissue, one individual animal: 1.1

## Nc1nc(=O)n([C@@H]2CS[C@H](COP(=O)(O)OP(=O)(O)OP(=O)(O)O)O2)cc1F [FTC-tp, emtricitabine triphosphate]
All three animal models
  FTC-tp in brain tissue: not detected; also recorded: not quantifiable

## O=C1Nc2ccc(Cl)cc2[C@@](C#CC2CC2)(C(F)(F)F)O1 [EFV, efavirenz]
HIV
  IC50 target: 2 ng/g
[4]; ref Boffito et al. 2003
  blood plasma protein binding: 99.5%
[5]
  median brain tissue concentration, human post-mortem: 900 ng/g
[6]
  BCS class: class I or class II
[7]; NHP, LC-MS/MS, four brain regions combined
  total brain tissue concentration, median [range]: 775 ng/g

## Nc1nc(=O)n([C@@H]2CS[C@H](CO)O2)cc1F [FTC, emtricitabine]
[4]; plasma
  protein binding in plasma: < 10%
[8]
  fold higher brain tissue penetration in BLT mice compared to hu-HSC-RAG mice: 5 fold
[7]; compared with ref Calcagno (2014)
  fold lower CSF concentration in NHPs than human concentrations: approximately 3 fold

## COC(=O)N[C@H](C(=O)N[C@@H](Cc1ccccc1)[C@@H](O)CN(Cc1ccc(-c2ccccn2)cc1)NC(=O)[C@@H](NC(=O)OC)C(C)(C)C)C(C)(C)C [ATZ, atazanavir]
[6]
  BCS class: class I or class II
In vitro
  fraction unbound at 18 h: 0.76
RT-SHIV [9]
  fold higher IC90 against RT-SHIV than against clinical HIV-1 isolates: 1,000 fold
[10]
  CSF concentrations: 5 to 21 ng/mL

## maraviroc [MVC]
RT-SHIV [9]
  fold higher IC90 against RT-SHIV than against clinical HIV-1 isolates: 100 fold

## Cc1nnc(C(=O)NC(C)(C)c2nc(C(=O)NCc3ccc(F)cc3)c(O)c(=O)n2C)o1 [RAL, raltegravir]
both, hu-HSC-Rag and BLT (mice), mouse (humanized) and rhesus macaque, in vivo
  Kp at 1 day after the last of ten days of dosing: 0.11 to 0.12
RT-SHIV [3]; six of the remaining seven animals
  IQ90 from total brain tissue concentrations: < 1
RT-SHIV [3]; the one animal where unbound concentration could be measured
  IQ90 from unbound brain tissue concentration: 0.07
RT-SHIV [3]
  IQ90 in NHP brain tissue, one individual animal: 1.1

## C[C@H](Cn1cnc2c(N)ncnc21)OCP(=O)(O)O [TFV, tenofovir]
[4]; no reference given
  protein binding in plasma: < 10%
[5]
  median brain tissue concentration, human post-mortem: 80 ng/g
[8]
  fold higher brain tissue penetration in BLT mice compared to hu-HSC-RAG mice: 3 fold
